# Experimental data taken from patent US10442830B2, “Synthesis of monoethers of sugar comprising a long alkyl chain and uses thereof as a surfactant” (TEREOS STARCH & SWEETENERS BELGIUM, priority 2014, dated 2019).
# Assay: Surface tension of aqueous solutions (Du Noüy-Padday method, platinum rod probe)
# Format: physicochemical
# Conditions: for Minimum hydrotrope concentration (MHC) or critical micelle concentration (CMC) / surface tension of water (γsat): in water at 25° C.; for surface tension of water (γsat): saturation surface tension; for concentration necessary to lower the surface tension / surface tension reached at the stated concentration: water
# Method: The term “surfactant” or “surface-active agent” denotes a compound that reduces surface tension when it is dissolved in water or in an aqueous medium, or that reduces the interfacial tension between two liquids, between a liquid and a solid or between a liquid and a gas. As a general rule, the surface-active properties of a compound may be measured by the plate method using a platinum rod as probe (Du Nouy-Padday method, as described in J F Padday, A R Pitt, R M Pashley, J. Chem. Soc. Faraday. Trans 1, 1975, 71, 1919-1931). The Du Nouy-Padday method is used for measuring the equilibrium of surface tension or of dynamic surface tension at the air/liquid interface.
# Surface tension was measured at (25.0±0.1)° C. with a Krüss K100MK2 tensiometer using a platinum rod as probe. A total of 1.0 ml of water was added to the measuring vessel. When the surface tension is stable (standard deviation of the last five measurements of 0.2 mN/m), manual dilution is carried out with a concentrated solution of surfactant to its limit of solubility while maintaining constant volume.
# In the present study, the general characteristics of the surfactants were evaluated by measuring the reduction in saturated surface tension (γsat) and the critical micelle concentration (CMC) of the mixture (3+4) previously obtained in water at 25° C. The surface-active properties were compared against those of the pure compounds.
# The surface tension of aqueous solutions containing increasing concentrations of each of the compounds was measured by the Du Noüy-Padday method using a platinum rod as probe (method described in J. F. Padday, A. R. Pitt, R. M. Pashley, J. Chem. Soc. Faraday. Trans 1, 1975, 71, 1919-1931). The data are presented graphically in FIG. 1, showing analysis of the surface tension as a function of the concentration of the sorbitan ether derivatives ([…] (black diamonds), C12EthSorb (black lozenges), C5/C12EthSorb (black triangles)). The value of the critical micelle concentration (CMC) is shown with a small arrow for C5EthSorb.
# The general characteristics of the surfactants were evaluated as in example 4 by measuring the reduction in saturated surface tension (γsat) and the critical micelle concentration (CMC) of the mixture (C5/C12 MeGlu) obtained previously in water at 25° C. The surface-active properties were compared with pure compounds.
# The surface tension of aqueous solutions containing increasing concentrations of each of the compounds was measured by the plate method using a platinum rod as probe (Du Nouy-Padday method as described in J F Padday, A R Pitt, R M Pashley, J. Chem. Soc. Faraday. Trans 1, 1975, 71, 1919-1931). The data are shown in FIG. 2, showing analysis of the surface tension from the concentration of the ether derivatives of methyl glucoside (C5EthMeGlu (black star), C12EthMeGlu (black diamond), C5/C12EthMeGlu (black cross)).
# [1] = ether derivatives of methyl glucoside
Substance,Minimum hydrotrope concentration (MHC) or critical micelle concentration (CMC) [1] [mg/L],surface tension of water (γsat) [1] [mN/m],Minimum hydrotrope concentration (MHC) or critical micelle concentration (CMC) (sorbitan ether derivatives) [mg/L],surface tension of water (γsat) (sorbitan ether derivatives) [mN/m],"concentration necessary to lower the surface tension (sorbitan ethers, to lower the surface tension by 31 mN/m) [µg/mL]",surface tension reached at the stated concentration (sorbitan ethers) [mN/m],concentration necessary to lower the surface tension (methyl glucoside ethers) [µg/mL],surface tension reached at the stated concentration (methyl glucoside ethers) [mN/m]
(6+4)-O-dodecyl-α-D-methyl glucopyranoside [Product C12EthMeGlu],4.5,28,–,–,–,–,–,–
(6+5+3−)-dodecyl sorbitan [Product C12EthSorb],–,–,30.2,31,–,–,–,–
pentyl sorbitan [Product C5EthSorb],–,–,1779,32,1179,31,–,–
pentyl α-D-methyl glucopyranoside [Product C5EthMeGlu],8199,32,–,–,–,–,8199,32
